For three molecules, ΔV1/2 results are on record in patent publication EP3723745B1, “PHENOXY ACIDS FOR THE TREATMENT OF NEUROMUSCULAR DISORDERS” (NMD Pharma A/S, priority 2017, dated 2019).

T1 sequence (P35523 whole entry): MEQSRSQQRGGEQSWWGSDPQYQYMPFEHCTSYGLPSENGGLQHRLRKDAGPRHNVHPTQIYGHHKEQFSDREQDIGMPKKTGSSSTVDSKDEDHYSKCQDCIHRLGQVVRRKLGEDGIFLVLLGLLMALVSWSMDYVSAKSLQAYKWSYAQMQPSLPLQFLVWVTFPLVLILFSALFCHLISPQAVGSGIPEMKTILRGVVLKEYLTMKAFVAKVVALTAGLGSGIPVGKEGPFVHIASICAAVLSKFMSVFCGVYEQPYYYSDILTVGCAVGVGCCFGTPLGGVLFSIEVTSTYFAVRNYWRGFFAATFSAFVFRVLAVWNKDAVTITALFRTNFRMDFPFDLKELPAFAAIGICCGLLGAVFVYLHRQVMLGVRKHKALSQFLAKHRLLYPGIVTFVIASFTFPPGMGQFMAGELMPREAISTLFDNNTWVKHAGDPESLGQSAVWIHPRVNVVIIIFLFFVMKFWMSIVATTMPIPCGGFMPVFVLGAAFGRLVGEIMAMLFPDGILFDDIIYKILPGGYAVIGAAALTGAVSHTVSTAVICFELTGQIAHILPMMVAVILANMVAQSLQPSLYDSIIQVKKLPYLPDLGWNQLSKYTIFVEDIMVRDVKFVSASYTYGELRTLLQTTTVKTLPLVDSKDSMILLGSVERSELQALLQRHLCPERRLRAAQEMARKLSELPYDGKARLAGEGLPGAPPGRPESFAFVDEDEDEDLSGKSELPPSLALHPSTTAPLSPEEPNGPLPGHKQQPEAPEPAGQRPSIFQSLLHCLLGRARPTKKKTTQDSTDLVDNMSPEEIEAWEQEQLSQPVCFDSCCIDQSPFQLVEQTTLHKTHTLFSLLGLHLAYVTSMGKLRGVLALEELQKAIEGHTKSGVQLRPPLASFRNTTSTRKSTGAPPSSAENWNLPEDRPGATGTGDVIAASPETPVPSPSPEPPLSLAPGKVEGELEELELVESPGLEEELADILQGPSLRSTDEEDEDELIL

The assay has as its target T1, human CIC-1 channels (Homo sapiens, UniProt P35523).
T1 construct: host or cells: CHO cells constitutively expressing human ClC-1
The experiment in a line: Automated patch-clamp on human CIC-1 expressed in CHO cells. The class given is cell-based. The note with it: difference in half activation voltage, compound added intracellularly vs control cell patches; positive shift = CIC-1 inhibition. The procedure:
The investigatory goal of these experiments was to evaluate how compounds affect the open probability and current amplitude of human CIC-1 channels expressed in CHO cells. Experiments were performed using an automated patch clamp system that allowed high throughput testing of whole cell patches together with both intracellular and extracellular addition of compound.
Automated whole cell patch clamp experiments were performed with the Qpatch 16 system (Sophion Bioscience, Ballerup, Denmark) at room temperature. Data acquisition and analysis were performed in the Qassay software (ver. 5.6, Odense).
To evoke CIC-1 currents in whole cell patches, the membrane potential was initially stepped from a holding potential of -30 mV to +60 mV for 100 ms and then to various test voltages (sweeps) ranging from +120 mV to -140 mV in steps of 20 mV for 300 ms. To obtain tail currents, the membrane potential was stepped to -100 mV after each test voltage for 300 ms and then relaxed to -30 mV for 2 sec between sweeps (Figure 3). I/V relationships for whole cell instant and steady state current amplitudes were obtained by plotting average current densities at the beginning and at the end of the 300 ms step against the membrane potential (Figure 4).
In order to determine the relative overall open probability (P0), the instantaneous tail currents were normalized to the maximal tail current obtained following the most positive voltage step and plotted against the test voltage. Plots of normalized tail currents from each whole cell patch were then fitted to a Boltzmann function allowing determination of half activation voltages (V1/2, Figure 5).
For automated patch clamp experiments extracellular solutions contained: 2 mM CaCl2, 1 mM MgCl2, 10 mM HEPES, 4 mM KCI, 145 mM NaCl, 10 mM Glucose, pH adjusted to 7.4 with NaOH (2 M). Osmolality adjusted to -320 using sucrose.
Intracellular solutions contained: 80 mM CsF, 60 mM CsCI, 5/1 mM KOH/EGTA, 10 mM HEPES, 10 mM NaCl, pH adjusted to 7.2 with NaOH (2 M). Osmolality adjusted to -320 mOsm using sucrose.
Cells used in patch clamp experiments were Chinese hamster ovary cells (CHO) constitutively expressing human CIC-1 channels. The amino acid sequence encoded by the cDNA used to create this cell line was identical to the translated sequence for GenBank accession number NM_000083.2. Cells were produced by Charles River (Catalogue CT6175, Cleveland OH, USA) in a cryopreserved format. Experiments were performed on the cells directly after thawing (3 × 10^6 cells used in each experiment).
To evaluate the compound effect on CIC-1, when applied directly to the intracellular side of the cell membrane, the half activation voltage, V1/2, was determined from whole cell patches with compound added to the intracellular solution and then compared to V1/2 determined from control cell patches with only vehicle added to the intracellular solution. Additionally, the effect of extracellular added compound was evaluated by determine V1/2 and steady state current amplitudes before and after exchanging the extracellular solution to contain compound.
The difference in half activation voltage of CIC-1 channels, ΔV1/2, was determined as the difference between the cell patches treated intracellularly with compound and control cells patches and is reported in Table 4 below. A positive shift in ΔV1/2 is reflecting CIC-1 channel inhibition by the tested compound. P-values of <0.05 is considered significant. […]
For the molecule `CC(C)[C@H](Oc1ccc(Br)cc1F)C(=O)O` [Compound A-27, (2S)-2-(4-bromo-2-fluorophenoxy)-3-methylbutanoic acid], the ΔV1/2 came to 20.2 mV. Regarding `[2H][C@@](CC)(Oc1ccc(Br)cc1)C(=O)O` [Compound A-60, (2S)-2-(4-bromophenoxy)(2-^2H)butanoic acid], the ΔV1/2 was found to be 20.0 mV. The figure for `O=C(O)[C@H](CCF)Oc1ccc(Br)cc1` [Compound A-87, (2S)-2-(4-bromophenoxy)-4-fluorobutanoic acid] is 16.4 mV.
